Data set [1] relates to RAW264.7. Briefly: Inhibition of LPS-induced nitric oxide production in mouse RAW264.7 cells treated 1 hr before LPS challenge measured after 24 hrs by Griess reaction method. Type of data set: functional, cell-based. In general terms: The Griess reaction detects nitrite, a stable product of nitric oxide.
In data set [2] the test system is HeLa. Briefly: Cytotoxicity against human HeLa cells after 72 hrs by MTT assay. Type of data set: functional, cell-based. A general note: Tetrazolium dyes change colour on reduction, which living cells bring about.
Data set [3] has as its system RAW264.7. Briefly: Cytotoxicity against mouse RAW264.7 cells at 100 uM. Type of data set: cell-based. The note with it: raw264.7, 100 µM.

In ChEMBL document CHEMBL2331177, “Pleurospiroketals A-E, perhydrobenzannulated 5,5-spiroketal sesquiterpenes from the edible mushroom Pleurotus cornucopiae” (J Nat Prod, 2013) one finds IC50 and Activity data, which are given here for four molecules.

With `C[C@]12CCC(=O)C=C1CC[C@@H]1[C@@H]2[C@@H](O)C[C@@]2(C)[C@H]1CC[C@]2(O)C(=O)CO` [HYDROCORTISONE], in data set [1], the half-maximal inhibitory concentration (IC50) – broadly, the point on the concentration scale where inhibition reaches its midpoint – amounted to 53.8 µM.
Take `C=C1[C@H]2CC[C@](C)(O)[C@H](O)[C@H]2O[C@@]12OC(C)(C)CC2=O` [PLEUROSPIROKETAL A]: the half-maximal inhibitory concentration (IC50) is 6.8 µM in data set [1] and 20.6 µM in data set [2]. Further, the Activity entry in data set [3] is “Non-toxic”.
As for `C=C1[C@H]2CC[C@](C)(O)[C@H](O)[C@H]2O[C@]12OC(C)(C)CC2=O` [PLEUROSPIROKETAL B], the figures for the IC50 in data set [1] and in data set [2] were 12.6 µM and 32.8 µM, respectively. Besides, the Activity entry in data set [3] is reported as “Non-toxic”.
The like results for `CC(=O)OCC1=C2CC[C@](C)(O)[C@H](O)[C@H]2O[C@@]12OC(C)(C)CC2=O` [PLEUROSPIROKETAL C] were, in that order, 20.8 µM, 18.8 µM and “Non-toxic”.
